Measured values: US7288532B1, “Modified chitosan polymers and enzymatic methods for the production thereof” (The University of Maryland Biotechnology Institute, priority 1998, dated 2007)

Test system: tyrosinase
Assay: tyrosinase activity under mildly acidic conditions by consumption of dissolved oxygen
Assay type: biochemical, mushroom
Details: chlorogenic acid 6 mM, 0.16% chitosan, pH about 5.8 to 6.0, tyrosinase 60 U/mL
Protocol: The reactivity of tyrosinase under mildly acidic conditions was studied to verify that the enzyme remains active in acidic solution. The progress of the reaction was measured by monitoring the consumption of dissolved oxygen, using the method described in Mayer et al., “Assay of catechol oxidase: A critical comparison of methods,” Phytochem., 5:783-789 (1966). The dissolved oxygen probe used in these measurements was obtained from Microelectrodes, Londonderry, N.H. Chlorogenic acid (6 mM) was added to a 0.16% chitosan solution, and the pH was adjusted to about 5.8 to 6.0. Tyrosinase (60 U/mL) was added, the reaction vessel sealed, and the dissolved oxygen content measured as a function of time. Two control solutions were prepared and monitored in the same manner, one containing only tyrosinase and chitosan (no phenolic compound), and one containing only chlorogenic acid and chitosan (no enzyme). The results of these measurements are shown in FIG. 1, with the two control solutions labeled “tyrosinase only” and “chlorogenic acid only,” respectively. […] In the solution containing both tyrosinase and chlorogenic acid, however, the oxygen level dropped rapidly in the first few minutes, reaching essentially zero after about 10 to 12 minutes.

time for dissolved oxygen level to reach essentially zero: 10 to 12 min
Compound: O=C(/C=C/c1ccc(O)c(O)c1)O[C@@H]1C[C@](O)(C(=O)O)C[C@@H](O)[C@H]1O [chlorogenic acid]
